For series [1] the following is noted: 3 mg/kg; 6 weeks of 1% cholesterol diet, one month after administration; not significantly different from control.
Text: For these studies, NZW rabbits that respond to diet can be selected. All animals are fed a 1% cholesterol diet and their cholesterol values determined three days after the diet initiation. Twenty rabbits with similar cholesterol levels can be selected and changed back to a normal diet. After 15 days on a normal diet, cholesterol values can once again be determined to check if the values returned to normal. Animals whose cholesterol values have not returned to pre-diet levels can be monitored until they are normalized or removed from the study. Ten rabbits in each group are selected and simultaneous peptide administration and 1% diet initiation can follow. […] To study dose-response effects, smaller number of animals (five in each group can be administered three doses of peptide (5 mg/kg, 3 mg/kg and 1.5 mg/kg). After the initial experiments, the dose of the peptide can be decided. A solution of the peptide (sterile saline) can be injected through the ear vein, once a week for the duration of the study (based on previous experience, for 6 weeks). The study parameters include total cholesterol, lipoprotein levels, LOOH levels, PON activity in the plasma. At the end of six weeks, the rabbits are euthanized and histology assessed.
Series [2] deals with C57BL/6J mice fed an atherogenic diet. The series is described as follows: Plasma cholesterol after one-time i.v. administration in C57BL/6J mice fed an atherogenic diet. The format is in vivo.
The test system of series [3] is C57BL/6 on normal chow, LDL-R(null) mice. The series is described as follows: Plasma cholesterol in C57BL/6 on normal chow and LDL-R(null) mice. The format is in vivo. The conditions noted are these: LDL-R(null) on normal chow or on a Western diet. The source says:
(§1) Although Ac-hE-18A-NH2 enhanced the hepatic uptake and degradation of atherogenic lipoproteins in apo E null mice, dual knockout mice (LDL-R(null)-apo E(null)), and C57BL/6 on an atherogenic diet, the peptide had no effect on the plasma cholesterol levels of C57BL/6 on normal chow, LDL-R(null) on normal chow or on a Western diet. […] However, the peptide is able to associate with human LDL (containing apo B-100) and VLDL and is able to enhance uptake and degradation of atherogenic human lipoproteins in HepG2 cells and in LDL-R (null) mouse model (Garber, D. W. et al. Atherosclerosis. 163:229-237 2003). The reason for the difference in the properties of apo B-100-containing human LDL and mouse LDL is not clear.

The subject of a further series is VCAM-1. The series is described as follows: LPS-induced VCAM-1 expression in HUVEC (Western blot). The conditions noted are these: peptide 50 ug/ml, LPS 1 ug/ml, 6 h exposure. The format is cell-based, human. An excerpt: HUVECs were challenged with the peptide alone, peptide +LPS and LPS. LPS induces expression of VCAM-1 (lane 3).
(§2) The effect of the peptide on the inflammatory response of bacterial lipopolysaccaride (LPS), a potent inducer of cytokines and cell adhesion molecules was also examined.
On the technique in general: Immunoblotting shows a protein as a band on a membrane.

Series [4] has as its system monocyte chemotaxis protein-1 (MCP-1). The series is described as follows: LPS-induced MCP-1 in HUVEC. It counts as cell-based, human.
Text: as §2

Series [5] relates to atherogenic apo B-containing lipoproteins in human plasma. The conditions noted are these: cited from earlier work.
Series [6] relates to B-100-containing particles. The series is described as follows: Association of peptide with mouse apo B-100-containing particles. It counts as binding. The conditions noted are these: LDL-R (null) and C57BL6 on normal chow.
Text: as §1

In the next series the test system is human VLDL. The conditions noted are these: cited from earlier work.
For another series, the system named is WHHL rabbits. The series is described as follows: Single bolus i.v. administration in WHHL rabbits. The format is in vivo, rabbit. On the procedure:
100 μg of the ^125I-labelled peptide was mixed with 1 ml of plasma from 6 month old WHHL rabbit. After incubation for 1 h at room temperature, the plasma was subjected to CLiP analysis (66). Radioactivity in different fractions was determined and plotted on the CLiP profile. […] This improvement was associated with a reduction in 2 markers of oxidative stress.
Results observed in HepG2 cells indicate that peptide associates with apo B-containing plasma lipoproteins to incorporate positive charges on the lipoprotein surface. This enables the apo B-containing lipoproteins to interact with heparan sulphate proteoglycans (HSPGs). The effect of these peptides on the mode of reduction of plasma cholesterol levels in mouse models and the two rabbit models can be determined. In NZW rabbits fed a 1% cholesterol-diet, a reduction of plasma cholesterol is observed which lasts for 14 days after the peptide administration; whereas in the WHHL rabbits, the reduction is initially rapid and returns to original levels within 3 days. Since the WHHL rabbit model is LDL-receptor defective, the differential effects of the peptide in two models can be due to differences in the receptor-mediated clearance pathways of atherogenic lipoproteins. HepG2 cells, primary hepatocytes from apo E null and LDL-R null mice, and primary rabbit hepatocytes can be used to determine the molecular factors in the receptor-mediated clearance pathways of atherogenic lipoproteins.

[7] abbreviates: peptide-associated VLDL, absence of apo E.
Where [8] appears, read: single bolus 15 mg/kg intravenous.

On to “Ac-LRKLRKRLLRDWLKAFYDKVAEKLKEAF-NH2 [Ac-hE-18A-NH2]”, for which, in [1], the average body weight came to 4.8 ± 0.4 kg and the “average daily food intake” value worked out at 0.17 ± 0.03 kg. In addition, the “time for which lower total cholesterol levels were observed vs control” value in [2] (100 ug i.v. one time, continued atherogenic diet) was at least 8 days. The “initial decrease of plasma cholesterol” value in series [2] (100 ug i.v., n=9) is listed as over 65%. Further, the “effect on plasma cholesterol levels” value in series [3] is listed as “no effect”. Besides, in the series with VCAM-1, the “inhibition of LPS-induced VCAM-1 expression” value is listed as “more than 80%”. In addition, the “effect on MCP-1” value in [4] is “also inhibited”. The “association with atherogenic apo B-containing lipoproteins” value in [5] is “associates with atherogenic apo B-containing lipoproteins”. Besides, the “association with B-100-containing particles” value in series [6] was “not able to associate”. The “plasma clearance of the peptide” value (3 mg/kg radiolabelled peptide) is on record as “much faster than that observed in WHHL rabbits”. The “plasma residence time t1/2” value (rabbits) is on record as 1 to 2 min. Further, the “interaction with VLDL” value in the series on human VLDL is “displacement of apo E from VLDL”. In addition, in the series with human VLDL (setting [7]), the “enhanced degradation of VLDL compared to VLDL alone” value is given as “three” and the “enhanced uptake of VLDL compared to VLDL alone” value is recorded as “six”. Also, the “time for plasma cholesterol to return to original levels” value in the series on WHHL rabbits (WHHL rabbits) is listed as at most 3 days. Besides, in the series on WHHL rabbits (setting [8]), the arterial endothelial function result is reported as “significantly improved”, the “formation of superoxide anion in arteries” value is reported as “significantly reduced”, the “increase in HDL paraoxonase activity” value was determined as 5 fold and the “plasma lipid hydroperoxide content” value is “reduced significantly”. The “plasma cholesterol levels at 18 h” value in the series with WHHL rabbits (single bolus 15 mg/kg intravenous, reduced from 562±29 mg/dl) is 287 ± 22 mg/dL.

The values are drawn from patent publication US8557767B2, “Synthetic apolipoprotein E mimicking polypeptides and methods of use” (UAB Research Foundation, priority 2007, dated 2013).
